Source: PubChem BioAssay AID351 (ChemBlock, 2006)
Activity calls are given as the source filed them.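 How the source made its calls: active means compounds that disrupt early egg division and make hatched embryos spin fast in place instead of swimming forward; inactive means the rest.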

test system: not listed separately; test: sea urchin embryo cleavage alteration, tubulin destabilizer project, whole organism, microscopy (AID 351); conditions: sea urchin embryo, cleavage alteration, microscopy

Compound	outcome
Nc1nonc1-c1nc2ccccc2n1Cc1cccc(F)c1	inactive; up to 1 mM
COc1ccc2[nH]cc(CCNC(=O)C(F)(F)F)c2c1	inactive; up to 50 µM
Nc1csnc1-c1nnc(Nc2ccc3c(c2)OCO3)o1	inactive; up to 5 µM
COc1ccc(-c2nc(Nc3nc(C)cc(C)n3)n[nH]2)cc1OC	inactive; up to 10 µM
COc1ccc(-c2nc(C)n3ccc4cc(OC)c(OC)cc4c23)cc1OC	inactive; up to 10 µM
Clc1ccc(-c2[nH]c(-c3cccc(C#Cc4ccccc4)c3)nc2-c2ccccc2)cc1	inactive; up to 5 mM
COc1ccc2[nH]c(C)c(CCNC(=O)c3ccc(OC)c(OC)c3)c2c1	inactive; up to 50 µM
Cc1[nH]c2ccc(OC(F)(F)F)cc2c1CCNC(=O)Cc1ccc(Cl)cc1	inactive; up to 10 µM
COc1ccc(C(=O)c2c(N)nc3n2CCC3)cc1OC	inactive; up to 5 mM
O=C(Nc1ccc(Br)cc1)C(=O)c1cn(Cc2ccc(Cl)cc2)c2ccccc12	inactive; up to 5 mM
NC(=O)c1nscc1NCc1cccnc1	inactive; up to 50 µM
c1cncc(CNc2cn[nH]c2-c2nnc(Nc3ccc4c(c3)OCCO4)o2)c1	inactive; up to 10 µM
O=c1c(O)c(-c2ccc(O)c(O)c2)oc2cc(O)cc(O)c12	inactive; up to 100 µM
COc1ccc2[nH]cc(CCNC(C)=O)c2c1	inactive; up to 50 µM
c1cncc(CNc2cn[nH]c2-c2nnc(Nc3ccc4c(c3)OCO4)o2)c1	inactive; up to 10 µM
COc1ccc(-c2csc(Nc3ccccc3OC)n2)cc1Br	inactive; up to 5 mM
CS(=O)(=O)c1ccc(Nc2nnc(-c3ccccc3N)o2)cc1	inactive; up to 5 mM
COc1ccc2[nH]cc(CCN3C(=O)OC(C)(C)C3(C)O)c2c1 (stereo not drawn)	inactive; up to 10 µM
Brc1cccc(-c2n[nH]c(-c3[nH]ncc3NCc3ccc4c(c3)OCO4)n2)c1	inactive; up to 5 mM
COc1ccc(/C=C(/C(=O)O)c2cc(OC)c(OC)c(OC)c2)cc1O	inactive; up to 10 mM
CC(=O)OC1C(=O)C2C(O)CC3OCC3(OC(C)=O)C2C(OC(=O)c2ccccc2)C2(O)CC(OC(=O)C(O)C(NCc3ccccc3)c3ccccc3)C(C)=C1C2(C)C (stereo not drawn)	inactive; up to 50 µM
COc1cc(OC)c2c(c1)OC(c1ccc(OC)c(OC)c1)C(O)C2=O (stereo not drawn)	inactive; up to 10 µM
O=C(Nc1cccnc1Cl)C(=O)c1cn(Cc2ccc(Cl)cc2)c2ccccc12	inactive; up to 2.5 mM
O=C(CC1(O)C(=O)N(Cc2ccc(F)cc2)c2ccccc21)c1ccc2c(c1)OCO2 (stereo not drawn)	inactive; up to 2.5 µM
Nc1csnc1C(=O)Nc1cccc(C(F)(F)F)c1	inactive; up to 5 µM
NC(=O)C(=O)c1cn(Cc2ccc(F)cc2)c2ccccc12	inactive; up to 50 µM

Compound	outcome
Cc1nc2ccccn2c1-c1csc(Nc2ccc(Br)cc2Br)n1	inactive; up to 5 mM
CCOc1cc2c(cc1OCC)C(c1cc(OC)c(OC)c(OC)c1)NCC2 (stereo not drawn)	inactive; up to 50 µM
COc1ccc(-c2oc(=O)oc2-c2ccc(OC)c(OC)c2)cc1OC	inactive; up to 5 mM
COc1cc(N)c(C(O)c2nccc3cc(OC)c(OC)cc23)cc1OC (stereo not drawn)	inactive; up to 50 µM
c1cnc(-c2nc(-c3ccc4c(c3)OCO4)no2)cn1	inactive; up to 5 µM
NC(=O)C(=O)c1cn(Cc2ccc(Cl)cc2Cl)c2ccccc12	inactive; up to 10 µM
O=C1c2c(O)cc(O)cc2OC(c2ccc(O)c(O)c2)C1O (stereo not drawn)	inactive; up to 50 µM
O=C(Nc1ccc(C(F)(F)F)cc1)C(=O)c1cn(Cc2ccc(Cl)cc2)c2ccccc12	inactive; up to 0.5 µM
COc1cc(C(=O)NCCc2c(C)[nH]c3ccc(OC(F)(F)F)cc23)cc(OC)c1OC	inactive; up to 50 µM
Cc1ccc(Nc2nc(-c3c(C)nc4ccccn34)cs2)c(C)c1	inactive; up to 5 mM
COc1ccc(CNc2ccccc2-c2nn[nH]n2)cc1OC	inactive; up to 20 mM
COc1ccc(Cc2nn[nH]n2)cc1OC	inactive; up to 50 µM
CC(=O)Nc1ccccc1-c1cc(C)c2ccccc2n1	inactive; up to 50 µM
COc1ccc2[nH]c(C)c(CCN3C(=O)C4CCCCC4C3=O)c2c1 (stereo not drawn)	inactive; up to 50 µM
COc1cc(-c2nnc(Nc3ccc4c(c3)OCO4)o2)cc(OC)c1OC	inactive; up to 5 µM
O=C(Nc1ccc(F)cc1)C(=O)c1cn(Cc2ccc(Cl)cc2)c2ccccc12	inactive; up to 5 mM
c1cc(-c2nc(-c3ccc4c(c3)OCO4)no2)ccn1	inactive; up to 50 µM
O=C(Nc1cccc(F)c1)C(=O)c1cn(Cc2ccc(Cl)cc2)c2ccccc12	inactive; up to 5 mM
COc1ccc(-c2nn[nH]n2)cc1OC	inactive; up to 100 µM
COc1ccc2[nH]cc(CCN)c2c1	inactive; up to 50 µM
COc1ccc(Cc2nc(-c3nonc3N)no2)cc1OC	inactive; up to 100 mM
COc1ccc(C2=NOC3C4COC(O4)C(=O)C23)cc1 (stereo not drawn)	inactive; up to 5 mM
CCOc1cc2c(cc1OCC)C(c1cc(OC)c(O)c(OC)c1)NCC2 (stereo not drawn)	inactive; up to 50 µM
O=C(Nc1ccc(Cl)cc1)C(=O)c1cn(Cc2ccc(Cl)cc2)c2ccccc12	inactive; up to 5 mM
O=C(C(=O)c1ccc2c(c1)OCO2)c1ccc2c(c1)OCO2	inactive; up to 2 mM
Nc1nonc1-c1cccnc1	inactive; up to 100 mM

Compound	outcome
O=C(Nc1ccc(OC(F)(F)F)cc1)C(=O)c1cn(Cc2ccc(Cl)cc2)c2ccccc12	inactive; up to 1 µM
COC(=O)c1ccccc1NC(=O)Cn1nnc(-c2ccc(OC)cc2)n1	inactive; up to 5 mM
NC(=O)c1nscc1NCc1ccncc1	inactive; up to 5 µM
COc1ccc(Nc2nc(-c3ccc(OC)c(OC)c3)cs2)cc1	inactive; up to 50 µM
Cc1onc(-c2ccccc2Cl)c1C(=O)Nc1cccnc1	inactive; up to 50 µM
CCN(CC)C(=O)C(=O)c1cn(Cc2ccc(F)cc2)c2ccccc12	inactive; up to 50 µM
CCOc1ccc(C2=C3c4cc(OCC)c(OCC)cc4CCN3C(=O)C2=O)cc1OCC	inactive; up to 50 µM
O=C(Nc1cccc(Cl)c1)C(=O)c1cn(Cc2ccc(Cl)cc2)c2ccccc12	inactive; up to 5 mM
Nc1cn[nH]c1-c1nc(-c2ccc(C(F)(F)F)cc2)n[nH]1	inactive; up to 50 mM
O=C(Nc1cccc(C(F)(F)F)c1)c1nscc1NCc1ccc2c(c1)OCO2	inactive; up to 5 µM
Brc1ccc(-c2n[nH]c(-c3[nH]ncc3NCc3ccncc3)n2)cc1	inactive; up to 20 mM
COc1cccc(NC(=O)C(=O)c2c[nH]c3ccccc23)c1	inactive; up to 5 mM
CCOc1cc(CNc2cccc3[nH]c(C)nc23)ccc1OC	inactive; up to 50 µM
O=C(Nc1cccc(C(F)(F)F)c1)C(=O)c1cn(Cc2ccc(Cl)cc2)c2ccccc12	inactive; up to 5 mM
COC(=O)c1cc(=O)c(O)c2c(O)c(O)c(OC)cc2c1	inactive; up to 20 mM
Cc1[nH]c2ccc(OC(F)(F)F)cc2c1CCN1C(=O)C2CCCCC2C1=O (stereo not drawn)	inactive; up to 10 µM
Nc1[nH]ncc1-c1nnc(Nc2ccc3c(c2)OCO3)o1	inactive; up to 20 mM
Nc1nc2ccccc2cc1-c1nnc(Nc2ccc3c(c2)OCO3)o1	inactive; up to 2 mM
Cn1cnc(NCc2cccnc2)c1-c1nnc(Nc2ccc3c(c2)OCCO3)o1	inactive; up to 2.5 µM
Nc1cc2c(cc1C(=O)c1ccccc1)OCCO2	inactive; up to 5 mM
COc1ccc2[nH]c(C(=O)O)c(CCNC(C)=O)c2c1	inactive; up to 50 µM
COc1cc(-c2nc(-c3ccncc3)no2)cc(OC)c1OC	inactive; up to 10 µM
CCOc1ccc(-c2cn[nH]c2N)cc1OCC	inactive; up to 40 mM
O=C(Nc1cccc(C(F)(F)F)c1)c1nscc1NCc1ccncc1	inactive; up to 1 µM
COc1cc2ccnc(-c3c[nH]c4cc(OC)c(OC)cc34)c2cc1OC	inactive; up to 10 µM
NC(=O)CCNCc1cccnc1	inactive; up to 10 µM

test system: sea urchin embryo, cleavage alteration, microscopy; test: as above; conditions: not given

Compound	threshold concentration [nM]
Nc1cc2c(cc1-c1nnc(Nc3ccc4c(c3)OCO4)o1)OCO2	50
COc1ccc(-c2nnc(-c3ccc(OC)c(OC)c3)o2)cc1OC	500
COc1ccc(-c2nc3sc4c(c3c(=O)[nH]2)CCCC4)c2ccccc12	50
c1cncc(CNc2ccccc2-c2nnc(Nc3ccc4c(c3)OCO4)o2)c1	1
COc1ccc(-c2c(-c3ccccc3)noc2N)cc1OC	500
COc1ccc(C2=N[C@H](c3ccc(OC)cc3)[C@H](c3ccc(OC)cc3)N2)cc1	500
CCOc1ccc(Nc2nc(-c3c(C)nc4ncccn34)cs2)cc1	5
COc1cc2c(cc1O)CCC1C2CCC2(C)C(O)CCC12 (stereo not drawn)	200
CCOc1ccc(Nc2nc(-c3c(C)nc4sccn34)cs2)cc1	50
COc1ccc(NC(=O)C(=O)c2cn(Cc3ccc(Cl)cc3)c3ccccc23)cc1	50
c1ccc(-c2nnc(Nc3ccc4c(c3)OCO4)o2)c(NCc2ccncc2)c1	0.5
Cc1nc2ncccn2c1-c1csc(Nc2ccc(Cl)cc2)n1	100
O=C(Nc1ccc2c(c1)OCCO2)C(=O)c1c[nH]c2ccccc12	2
O=C(Nc1ccc2c(c1)OCCO2)C(=O)c1cn(Cc2ccc(Cl)cc2)c2ccccc12	100
c1cncc(CNc2ccccc2-c2nnc(Nc3ccc4c(c3)OCCO4)o2)c1	1
Cc1cc(NC(=O)C(=O)c2cn(Cc3ccc(Cl)cc3)c3ccccc23)no1	10
COc1cc(N)c(-c2nnc(Nc3ccc4c(c3)OCO4)o2)c(OC)c1	50
COc1ccc(-c2nnc(Nc3ccc4c(c3)OCCO4)o2)c(N)c1	25
O=C(Nc1ccncc1)C(=O)c1cn(Cc2ccc(Cl)cc2)c2ccccc12	10
Cc1nc2sccn2c1-c1csc(Nc2ccc(Cl)cc2)n1	100
